Test results reported in patent US20260028343A1, “Substituted Imidazopyrazine Compounds as Ligand Directed Degraders of IRAK3” (Celgene Corporation, priority 2022, published 2026).

Target: T1, IRAK3-ePL (Homo sapiens, UniProt Q9Y616)
T1 construct: expressed in transfected cells; host or cells: 293T CRBN OE / GSPT1 G575N KI cells, lentiviral transduction, puromycin selection
Assay: IRAK3-ePL Overexpressing Degradation Assay
Assay type: cell-based
Details: IRAK3-ePL Lenti-X 293T CRBN/GSPT1 G575N cells, overnight incubation; for Dmax: HEK-293T, top dose 10 μM, maximum percentage loss of target protein; for DC50: read-out: IRAK3 ePL degradation EC50
Description: Stable cell lines were generated by the following protocol. 3×10^5 Lenti-X 293T cells (Clonetech) were plated in 0.8 mL of media in a 12-well plate and incubated overnight at 37° C./5% CO2. Packaging plasmid (0.4 μg, pMD), envelope plasmid (0.4 μg, pSP), and lentiviral transfer IRAK3-ePL plasmid (0.8 μg, IRAK3 sequence NM_007199.3) were mixed in 0.1 mL of Opti-MEM and incubated for 5 min. Simultaneously, 2.4 μL of Lipofectamine 2000 (Invitrogen) was added to 0.1 mL of Opti-MEM (Gibco) and incubated for 5 min. The plasmid DNA and lipofectamine were combined and the mixture was allowed to incubate for 20 min.DNA:Lipofectamine Opti-MEM mixtures were then added to previously plated cells dropwise and the cells were incubated for ˜16 h at 37° C./5% CO2. Following incubation, the media was removed and 1.2 mL of fresh media was added per well. Lenti-X 293T cells were incubated for ˜30 h at 37° C./5% CO2. 0.5×10^6 293T^CRBN OE/GSPT1 G575N KI cells were plated in 0.5 mL of media/well of a 12-well plate and incubated for ˜16 h at 37° C./5% CO2. Following incubation, media was removed from the Lenti-X 293T wells and passed through a […]. Part of the viral supernatant was used to transduce cells and the rest was stored at −80° C. Viruses were then added individually (0.5 mL virus) to each well of the 293T^CRBN OE/GSPT1 G575N KI cells, followed by addition of polybrene (10 mg/mL Millipore) to each well at a final concentration of 5.0 μg/mL. Cells were incubated for ˜24 h at 37° C./5% CO2. After aspirating media off plates, cells were washed with DPBS, trypsinized and plated in a 10 cm dish in 15 mL of media and 1 μg/mL puromycin. Following incubation of cells for ˜72 h at 37° C./5% CO2, media was aspirated off plates, and cells were washed with DPBS and trypsinized. The cells were plated in a 15 cm dish in 40 mL of media with 1.0 μg/mL Puromycin (Gibco) and incubated for ˜72 h at 37° C./5% CO2. Following incubation, media was removed and cells were washed with DPBS and trypsinized. The majority of cells were resuspended in Invitrogen freezing media and stored away (˜6-8×10^6 cells/vial).
IRAK3-ePL cellular dose response curve degradation assays were performed by the following protocol. Compounds to be tested were dispensed into a white 384-well tissue-culture treated plate using an acoustic liquid handler. Dilutions were prepared based on a 25 μL assay volume in duplicate 10 point 3-fold serial dilutions starting with a 10 μM dose. Negative control wells were included, which only contain 0.2% DMSO to calculate 100% signal. Positive control wells containing 30 μM Ataluren (luciferase inhibitor) were included to calculate the background signal level. All wells were backfilled to a final DMSO concentration of 0.2% to ensure DMSO uniformity across wells. IRAK3-ePL expressing cells (IRAK3-ePL Lenti-X 293T^CRBN/GSPT1 G575N) were washed, trypsinized, counted, and resuspended in fresh DMEM (Gibco) to give a cell concentration of 200,000 cells/mL. 25 μL of cells (5,000 cells/well) were dispensed into the wells of the 384-well plate prespotted with compounds in the previous step and incubated overnight at 37° C./5% CO2. Following incubation, the 384-well plate was taken out of the incubator and left at room temperature for 30 min. InCELL hunter reagent was prepared according to manufacturer's instructions (EA reagent, lysis buffer, and substrate reagent in a 1:1:4 ratio, Cat #96-0002, DiscoverX), which was added to the 384-well plate 25 μL per well. Following the incubation of the plate for 1 h at room temperature, the luminescence signal was read using a ViewLux plate reader. Data was processed and analyzed in ActivityBase software. In short, the average luminescence values of the positive control wells were subtracted from the rest of the wells for background correction, and all luminescence values were normalized to the DMSO control wells. The average value of the DMSO control wells was set to equal 100% of the relative IRAK3-ePL protein levels. […]

Compound	Dmax [%]	DC50 [µM]
Cc1cccc(-c2cnc(Nc3ccc(N4CCN(C(=O)COc5cccc6c5C(=O)N(C5CCC(=O)NC5=O)C6=O)CC4)cc3)c3nccn23)c1 (stereo not drawn) [Compound 1, 2-(2,6-Dioxopiperidin-3-yl)-4-(2-oxo-2-(4-(4-((5-(m-tolyl)imidazo[1,2-a]pyrazin-8-yl)amino)phenyl)piperazin-1-yl)ethoxy)isoindoline-1,3-dione]	11	–
Cc1cccc(-c2cnc(Nc3ccc(N4CCN(C(=O)CCOCCNC(=O)COc5cccc6c5C(=O)N(C5CCC(=O)NC5=O)C6=O)CC4)cc3)c3nccn23)c1 (stereo not drawn) [Compound 3, 2-((2-(2,6-Dioxopiperidin-3-yl)-1,3-dioxoisoindolin-4-yl)oxy)-N-(2-(3-oxo-3-(4-(4-((5-(m-tolyl)imidazo[1,2-a]pyrazin-8-yl)amino)phenyl)piperazin-1-yl)propoxy)ethyl)acetamide]	14	–
Cc1cccc(-c2cnc(Nc3ccc(N4CCN(CCNC(=O)COc5ccc6c(c5)C(=O)N(C5CCC(=O)NC5=O)C6=O)CC4)cc3)c3nccn23)c1 (stereo not drawn) [Compound 7, 2-((2-(2,6-Dioxopiperidin-3-yl)-1,3-dioxoisoindolin-5-yl)oxy)-N-(2-(4-(4-((5-(m-tolyl)imidazo[1,2-a]pyrazin-8-yl)amino)phenyl)piperazin-1-yl)ethyl)acetamide]	51	1.1
Cc1cccc(-c2cnc(Nc3cnn(C4CCN(CCNC(=O)COc5ccc6c(c5)C(=O)N(C5CCC(=O)NC5=O)C6=O)CC4)c3)c3nccn23)c1 (stereo not drawn) [Compound 8, 2-((2-(2,6-Dioxopiperidin-3-yl)-1,3-dioxoisoindolin-5-yl)oxy)-N-(2-(4-(4-((5-(m-tolyl)imidazo[1,2-a]pyrazin-8-yl)amino)-1H-pyrazol-1-yl)piperidin-1-yl)ethyl)acetamide]	78	0.017
Cc1cccc(-c2cnc(Nc3cccc(C4CCN(CCNC(=O)COc5ccc6c(c5)C(=O)N(C5CCC(=O)NC5=O)C6=O)CC4)c3)c3nccn23)c1 (stereo not drawn) [Compound 9, 2-((2-(2,6-Dioxopiperidin-3-yl)-1,3-dioxoisoindolin-5-yl)oxy)-N-(2-(4-(3-((5-(m-tolyl)imidazo[1,2-a]pyrazin-8-yl)amino)phenyl)piperidin-1-yl)ethyl)acetamide]	18	–
Cc1cccc(-c2cnc(Nc3ccc(C4CCN(CCNC(=O)COc5ccc6c(c5)C(=O)N(C5CCC(=O)NC5=O)C6=O)CC4)cc3)c3nccn23)c1 (stereo not drawn) [Compound 10, 2-((2-(2,6-Dioxopiperidin-3-yl)-1,3-dioxoisoindolin-5-yl)oxy)-N-(2-(4-(4-((5-(m-tolyl)imidazo[1,2-a]pyrazin-8-yl)amino)phenyl)piperidin-1-yl)ethyl)acetamide]	17	–
Cc1cccc(-c2cnc(Nc3cccc(N4CCN(CCNC(=O)COc5ccc6c(c5)C(=O)N(C5CCC(=O)NC5=O)C6=O)CC4)c3)c3nccn23)c1 (stereo not drawn) [Compound 11, 2-((2-(2,6-Dioxopiperidin-3-yl)-1,3-dioxoisoindolin-5-yl)oxy)-N-(2-(4-(3-((5-(m-tolyl)imidazo[1,2-a]pyrazin-8-yl)amino)phenyl)piperazin-1-yl)ethyl)acetamide]	22	–
Cc1cccc(-c2cnc(Nc3cnn(C4CCN(C5CCC6(CC5)CCN(C(=O)c5ccc7c(c5)CN(C5CCC(=O)NC5=O)C7=O)CC6)CC4)c3)c3nccn23)c1 (stereo not drawn) [Compound 12, 3-(1-Oxo-5-(9-(4-(4-((5-(m-tolyl)imidazo[1,2-a]pyrazin-8-yl)amino)-1H-pyrazol-1-yl)piperidin-1-yl)-3-azaspiro[5.5]undecane-3-carbonyl)isoindolin-2-yl)piperidine-2,6-dione]	76	0.028

Continued, values first:

Dmax [%]	DC50 [µM]	Compound
10	–	Cc1cccc(-c2cnc(Nc3ccc(N4CCN(C(=O)CCCNC(=O)COc5cccc6c5C(=O)N(C5CCC(=O)NC5=O)C6=O)CC4)cc3)c3nccn23)c1 (stereo not drawn) [Compound 2, 2-((2-(2,6-Dioxopiperidin-3-yl)-1,3-dioxoisoindolin-4-yl)oxy)-N-(4-oxo-4-(4-(4-((5-(m-tolyl)imidazo[1,2-a]pyrazin-8-yl)amino)phenyl)piperazin-1-yl)butyl)acetamide]
22	–	Cc1cccc(-c2cnc(Nc3ccc(N4CCN(C(=O)COc5ccc6c(c5)C(=O)N(C5CCC(=O)NC5=O)C6=O)CC4)cc3)c3nccn23)c1 (stereo not drawn) [Compound 4, 2-(2,6-Dioxopiperidin-3-yl)-5-(2-oxo-2-(4-(4-((5-(m-tolyl)imidazo[1,2-a]pyrazin-8-yl)amino)phenyl)piperazin-1-yl)ethoxy)isoindoline-1,3-dione]
21	–	Cc1cccc(-c2cnc(Nc3ccc(N4CCN(C(=O)CCCNC(=O)COc5ccc6c(c5)C(=O)N(C5CCC(=O)NC5=O)C6=O)CC4)cc3)c3nccn23)c1 (stereo not drawn) [Compound 5, 2-((2-(2,6-Dioxopiperidin-3-yl)-1,3-dioxoisoindolin-5-yl)oxy)-N-(4-oxo-4-(4-(4-((5-(m-tolyl)imidazo[1,2-a]pyrazin-8-yl)amino)phenyl)piperazin-1-yl)butyl)acetamide]
39	–	Cc1cccc(-c2cnc(Nc3ccc(N4CCN(C(=O)CCOCCNC(=O)COc5ccc6c(c5)C(=O)N(C5CCC(=O)NC5=O)C6=O)CC4)cc3)c3nccn23)c1 (stereo not drawn) [Compound 6, 2-((2-(2,6-Dioxopiperidin-3-yl)-1,3-dioxoisoindolin-5-yl)oxy)-N-(2-(3-oxo-3-(4-(4-((5-(m-tolyl)imidazo[1,2-a]pyrazin-8-yl)amino)phenyl)piperazin-1-yl)propoxy)ethyl)acetamide]
